Entries after “also recorded” stand apart in the source; their conditions may differ. Bridge positions count the residues as written; N and C are the ends. Square brackets hold non-standard residues; d marks the D form. Peptide text beside a SMILES is read from it. * marks the point of attachment. 5TAMRA = CN(C)c1ccc2c(c1)Oc1cc(N(C)C)ccc1C21OC(=O)c2cc(C(=O)*)ccc21; 2Nal = N[C@@H](Cc1ccc2ccccc2c1)C(=O)O; Pen = CC(C)(S)[C@H](N)C(=O)O; Aib = CC(C)(N)C(=O)O
Columns and labels:
NL-IL12Rβ1 with IL23R = biological target: T1, NL-IL12Rβ1 with IL23R (Homo sapiens, UniProt Q5VWK5); assay: P630-TMR NanoBRET binding assay, NL-IL12Rβ1 with IL23R; details: for BRET ratio, Specific (Mean) / BRET ratio, Non-specific (Mean): Fig. 2e; for BRET ratio, Non-specific (Mean): with 10 μM P630; for % maximum BRET ratio (Mean): Figure 2 sheet Panel g; for % maximum BRET ratio (Mean) / BRET ratio with non-specific binding subtracted (Mean): IL23R + NL-IL12RB1; for BRET ratio with non-specific binding subtracted (Mean): Figure 2 sheet Panels f, h
T1 construct: untagged full-length IL23R could be measured in the membranes of living cells; expressed in transfected cells; host or cells: HEK293T, transient transfection
T1 sequence (Q5VWK5 24-629, other chains not shown): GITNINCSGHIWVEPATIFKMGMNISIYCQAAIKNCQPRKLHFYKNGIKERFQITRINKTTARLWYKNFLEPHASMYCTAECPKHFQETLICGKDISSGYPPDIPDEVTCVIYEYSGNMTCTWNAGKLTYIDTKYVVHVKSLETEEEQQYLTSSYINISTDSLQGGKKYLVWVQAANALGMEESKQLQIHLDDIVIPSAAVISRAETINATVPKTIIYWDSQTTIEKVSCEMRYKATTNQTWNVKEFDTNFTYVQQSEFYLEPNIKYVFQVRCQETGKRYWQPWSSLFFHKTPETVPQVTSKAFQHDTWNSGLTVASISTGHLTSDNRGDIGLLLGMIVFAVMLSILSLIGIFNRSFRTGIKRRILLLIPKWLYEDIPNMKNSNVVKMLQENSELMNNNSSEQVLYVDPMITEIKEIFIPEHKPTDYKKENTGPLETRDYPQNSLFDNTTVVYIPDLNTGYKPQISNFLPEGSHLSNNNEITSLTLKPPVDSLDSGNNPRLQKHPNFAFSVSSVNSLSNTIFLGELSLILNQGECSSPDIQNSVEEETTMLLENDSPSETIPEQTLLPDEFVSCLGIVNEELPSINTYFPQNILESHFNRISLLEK
Excerpt: A standard curve was used to predict the expression level of NanoLuc labelled receptor in each experiment (Supplementary Fig. 1).
(§1) Fig. 2 Creation and characterisation of a fluorescent cyclic peptide probe for IL23R. […] Data are normally mean ± SEM from five independent experiments. Details on absolute number of data points included for each concentration are provided in the associated Source Data file. In each individual saturation experiment triplicate determinations were normally made for total binding and duplicate measurements were made for non-specific binding.
(§2) Media was removed from white 96-well microplates containing transfected cells and replaced with fluoroprobe in the presence or absence of antagonist in 50 μL Hanks Balanced Salt Solution (HBSS) with 1 mg/mL BSA (Merck). After a 1-hour incubation at 37 °C without CO2, 5 μL of HBSS containing 77 μM furimizine was added to each well (final concentration 7 μM), the plate incubated for 5-minutes and the BRET signal measured using a PheraStar FS plate reader (BMG Labtech; data acquisition software version 5.41; MARS analysis software version 3.32) with a 450 ± 30 nm and >550 nm long pass filters.
Ligand binding data were fitted with the equation:2 BRETratio=Bmax[A]/([A]+KD)+(BA+C). Where ‘Bmax’ is the maximum specific binding BRET signal, ‘[A]’ is fluorescent probe concentration, ‘B’ is the non-specific binding component’s slope and ‘C’ is the Y intercept.
(§3) Specific binding data was generated by subtracting the BRET values gained in the presence of an excess of unlabelled probe from the BRET ratios gained in the absence of unlabelled probe. Specific binding data were fit using the equation:3 Y=Bmax[B]/(B+KD) where ‘Bmax’ is the maximum specific binding signal of the curve and ‘[B]’ is the concentration of fluorescent probe.

NL-IL12Rβ1 = biological target: T2, NL-IL12Rβ1 (Homo sapiens, UniProt P42701); assay: P630-TMR NanoBRET binding assay, NL-IL12Rβ1 alone; details: for Specific binding BRET ratio (Mean): Fig. 2h, NL-IL12RB1
T2 construct: expressed in transfected cells; host or cells: HEK293T, transient transfection
Excerpt: as §1
(§4) Finally, we utilised a NanoBiT BRET system in which a complemented luciferase with fragments bound to both receptor subunits (Fig. 3) can be used as a BRET donor to measure interactions with binary receptor complexes.
as §2, §3

[1] = biological target: HiBit-IL23R and LgBit-IL12Rβ1 (Homo sapiens, UniProt Q5VWK5); assay: NanoBiT BRET binding assay; design: expressed in transfected cells; host or cells: HEK293T, transient transfection; details: for BRET ratio, Non-specific (Mean) / BRET ratio, Specific (Mean): Fig. 3b, NanoBiT complemented receptors; for % of P630-TMR specific Bmax (Mean): Fig. 3d, HiBit-IL23R + LgBit-IL12RB1
Sequence of HiBit-IL23R and LgBit-IL12Rβ1 (Q5VWK5 24-629, other chains not shown): as above
Excerpt: as §4
Data in b are mean ± SEM from three independent experiments. In each individual experiment, triplicate determinations were made for total binding and duplicate or triplicate determinations made for non-specific binding. Data in c are the mean values obtained in five independent experiments, each conducted with six replicates. […] Data in d are the mean ± SEM from five (NL-IL23R and NL-23R + IL12Rβ1) or three (HiBit-IL23R + LgBit-IL12Rβ1) independent experiments. Source data are provided as a Source Data file.
as §2

[2] = NL-IL12Rβ1 and IL23R, P630-TMR 0.457247 nM
[3] = NL-IL12Rβ1 and IL23R, P630-TMR 1.37174 nM
[4] = NL-IL12Rβ1 and IL23R, P630-TMR 4.11523 nM
[5] = NL-IL12Rβ1 and IL23R, P630-TMR 12.3457 nM
[6] = NL-IL12Rβ1 and IL23R, P630-TMR 37.037 nM
[7] = NL-IL12Rβ1 and IL23R, P630-TMR 111.111 nM
[8] = NL-IL12Rβ1 and IL23R, P630-TMR 1000 nM
[9] = NL-IL12Rβ1 and IL23R, P630-TMR 3000 nM

BRET ratio, Specific (Mean) (NL-IL12Rβ1 with IL23R; [2]): 0.2494
BRET ratio, Specific (Mean) (NL-IL12Rβ1 with IL23R; [3]): 0.2506
BRET ratio, Specific (Mean) (NL-IL12Rβ1 with IL23R; [4]): 0.2544
BRET ratio, Specific (Mean) (NL-IL12Rβ1 with IL23R; [5]): 0.2565
BRET ratio, Specific (Mean) (NL-IL12Rβ1 with IL23R; [6]): 0.2604
BRET ratio, Specific (Mean) (NL-IL12Rβ1 with IL23R; [7]): 0.269
BRET ratio, Specific (Mean) (NL-IL12Rβ1 with IL23R; [8]): 0.2823
BRET ratio, Specific (Mean) (NL-IL12Rβ1 with IL23R; [9]): 0.2959
BRET ratio, Non-specific (Mean) (NL-IL12Rβ1 with IL23R; [2]): 0.245
BRET ratio, Non-specific (Mean) (NL-IL12Rβ1 with IL23R; [3]): 0.2494
BRET ratio, Non-specific (Mean) (NL-IL12Rβ1 with IL23R; [4]): 0.2477
BRET ratio, Non-specific (Mean) (NL-IL12Rβ1 with IL23R; [5]): 0.2499
BRET ratio, Non-specific (Mean) (NL-IL12Rβ1 with IL23R; [6]): 0.2505
BRET ratio, Non-specific (Mean) (NL-IL12Rβ1 with IL23R; [7]): 0.2497
BRET ratio, Non-specific (Mean) (NL-IL12Rβ1 with IL23R; [8]): 0.2599
BRET ratio, Non-specific (Mean) (NL-IL12Rβ1 with IL23R; [9]): 0.2729
BRET ratio, Non-specific (Mean) (NL-IL12Rβ1 with IL23R; NL-IL12Rβ1 and IL23R, P630-TMR […]): 0.2519
% maximum BRET ratio (Mean) (NL-IL12Rβ1 with IL23R; P630-TMR 0.457247 nM): 20.2943%
% maximum BRET ratio (Mean) (NL-IL12Rβ1 with IL23R; P630-TMR 1.37174 nM): 3.037%
% maximum BRET ratio (Mean) (NL-IL12Rβ1 with IL23R; P630-TMR 4.11523 nM): 30.2039%
% maximum BRET ratio (Mean) (NL-IL12Rβ1 with IL23R; P630-TMR 12.3457 nM): 28.4128%
% maximum BRET ratio (Mean) (NL-IL12Rβ1 with IL23R; P630-TMR 37.037 nM): 44.6085%
% maximum BRET ratio (Mean) (NL-IL12Rβ1 with IL23R; P630-TMR 111.111 nM): 87.2944%
% maximum BRET ratio (Mean) (NL-IL12Rβ1 with IL23R; P630-TMR 1000 nM): 109.773%
% maximum BRET ratio (Mean) (NL-IL12Rβ1 with IL23R; P630-TMR 3000 nM): 100.001%
BRET ratio with non-specific binding subtracted (Mean) (NL-IL12Rβ1 with IL23R; P630-TMR 0.457247 nM): 0.00447
BRET ratio with non-specific binding subtracted (Mean) (NL-IL12Rβ1 with IL23R; P630-TMR 1.37174 nM): 0.001281
BRET ratio with non-specific binding subtracted (Mean) (NL-IL12Rβ1 with IL23R; P630-TMR 4.11523 nM): 0.006719
BRET ratio with non-specific binding subtracted (Mean) (NL-IL12Rβ1 with IL23R; P630-TMR 12.3457 nM): 0.00665
BRET ratio with non-specific binding subtracted (Mean) (NL-IL12Rβ1 with IL23R; P630-TMR 37.037 nM): 0.009959
BRET ratio with non-specific binding subtracted (Mean) (NL-IL12Rβ1 with IL23R; P630-TMR 111.111 nM): 0.01927
BRET ratio with non-specific binding subtracted (Mean) (NL-IL12Rβ1 with IL23R; P630-TMR 1000 nM): 0.02313
BRET ratio with non-specific binding subtracted (Mean) (NL-IL12Rβ1 with IL23R; P630-TMR 3000 nM): 0.02294
Kd (NL-IL12Rβ1 with IL23R; NL-IL12Rβ1 and IL23R, mean ± SEM): 55.2 ± 10.5 nM
Bmax, fold lower than NL-IL23R with IL12Rβ1 (NL-IL12Rβ1 with IL23R; NL-IL12Rβ1 with IL23R): 42.53 fold
Specific binding BRET ratio (Mean) (NL-IL12Rβ1; P630-TMR 1.37174 nM): -0.001356
Specific binding BRET ratio (Mean) (NL-IL12Rβ1; P630-TMR 4.11523 nM): 0.00137
Specific binding BRET ratio (Mean) (NL-IL12Rβ1; P630-TMR 12.3457 nM): 0.0001891
Specific binding BRET ratio (Mean) (NL-IL12Rβ1; P630-TMR 37.037 nM): 0.00136
Specific binding BRET ratio (Mean) (NL-IL12Rβ1; P630-TMR 111.111 nM): 0.002083
Specific binding BRET ratio (Mean) (NL-IL12Rβ1; P630-TMR 1000 nM): 0.003104
Specific binding BRET ratio (Mean) (NL-IL12Rβ1; P630-TMR 3000 nM): 0.002137
BRET ratio, Non-specific (Mean) ([1]; P630-TMR 1.37174 nM): 0.09875
BRET ratio, Specific (Mean) ([1]; P630-TMR 1.37174 nM): 0.105
BRET ratio, Non-specific (Mean) ([1]; P630-TMR 4.11523 nM): 0.09641
BRET ratio, Specific (Mean) ([1]; P630-TMR 4.11523 nM): 0.1138
BRET ratio, Non-specific (Mean) ([1]; P630-TMR 12.3457 nM): 0.09986
BRET ratio, Specific (Mean) ([1]; P630-TMR 12.3457 nM): 0.141
BRET ratio, Non-specific (Mean) ([1]; P630-TMR 37.037 nM): 0.1012
BRET ratio, Specific (Mean) ([1]; P630-TMR 37.037 nM): 0.1913
BRET ratio, Non-specific (Mean) ([1]; P630-TMR 111.111 nM): 0.1006
BRET ratio, Specific (Mean) ([1]; P630-TMR 111.111 nM): 0.2562
BRET ratio, Non-specific (Mean) ([1]; P630-TMR 1000 nM): 0.1066
BRET ratio, Specific (Mean) ([1]; P630-TMR 1000 nM): 0.3269
BRET ratio, Non-specific (Mean) ([1]; P630-TMR 3000 nM): 0.1175
BRET ratio, Specific (Mean) ([1]; P630-TMR 3000 nM): 0.3365
% of P630-TMR specific Bmax (Mean) ([1]; P630-TMR 1.37174 nM): 2.813%
% of P630-TMR specific Bmax (Mean) ([1]; P630-TMR 4.11523 nM): 8.07%
% of P630-TMR specific Bmax (Mean) ([1]; P630-TMR 12.3457 nM): 19.2912%
% of P630-TMR specific Bmax (Mean) ([1]; P630-TMR 37.037 nM): 41.1077%
% of P630-TMR specific Bmax (Mean) ([1]; P630-TMR 111.111 nM): 71.2465%
% of P630-TMR specific Bmax (Mean) ([1]; P630-TMR 1000 nM): 99.3007%
% of P630-TMR specific Bmax (Mean) ([1]; P630-TMR 3000 nM): 100%
Kd ([1]; HiBit-IL23R and LgBit-IL12Rβ1, mean ± SEM): 53.5 ± 4.4 nM
SMILES: COc1ccc(C[C@H](NC(=O)[C@H]2NC(=O)[C@H](CCC(N)=O)NC(=O)[C@H](Cc3c[nH]c4ccccc34)NC(=O)[C@H]([C@@H](C)O)NC(=O)[C@H](CC(N)=O)NC(=O)[C@@H](NC(C)=O)C(C)(C)SSC2(C)C)C(=O)N[C@@H](Cc2ccc3ccccc3c2)C(=O)NC(C)(C)C(=O)N[C@@H](CCC(=O)O)C(=O)N[C@@H](CC(N)=O)C(=O)N[C@@H](CC(N)=O)C(=O)N[C@@H](CCCCNC(=O)c2ccc3c(c2)C(=O)OC32c3ccc(N(C)C)cc3Oc3cc(N(C)C)ccc32)C(N)=O)cc1 [P630-TMR] (Ac-[Pen]NTWQ[Pen]Y(Me)[2Nal][Aib]ENNK(5TAMRA)-NH2; disulfide 1-6)
Binding to cells expressing NL-IL12Rβ1 in isolation (NL-IL12Rβ1; absence of IL23R): no specific binding; also recorded: Did not bind
